Assay results published in EP4227307A1 (Genzyme Corporation, priority 2022, dated 2023).
Structures can show the parent of a compound that is named as a salt.

biological target: T1, human recombinant 6His-Nterm SHP2 full-length (Thr2-Arg593) (Homo sapiens, UniProt Q06124); experiment: SHP2 Phosphatase Assay (DiFMUP fluorescence); type: biochemical; settings: SHP2 0.2 nM pre-incubated with 100 nM bi-phosphorylated activating peptide; compound 1000-0.05 nM, 30 min pre-incubation; DiFMUP 20 µM, 45 min, room temperature; 10-concentration dose-response
T1 construct: 6His-Nterm SHP2 full-length (Thr2-Arg593, R&D system); 6His (N); purchased R&D system
T1 sequence (Q06124 2-593): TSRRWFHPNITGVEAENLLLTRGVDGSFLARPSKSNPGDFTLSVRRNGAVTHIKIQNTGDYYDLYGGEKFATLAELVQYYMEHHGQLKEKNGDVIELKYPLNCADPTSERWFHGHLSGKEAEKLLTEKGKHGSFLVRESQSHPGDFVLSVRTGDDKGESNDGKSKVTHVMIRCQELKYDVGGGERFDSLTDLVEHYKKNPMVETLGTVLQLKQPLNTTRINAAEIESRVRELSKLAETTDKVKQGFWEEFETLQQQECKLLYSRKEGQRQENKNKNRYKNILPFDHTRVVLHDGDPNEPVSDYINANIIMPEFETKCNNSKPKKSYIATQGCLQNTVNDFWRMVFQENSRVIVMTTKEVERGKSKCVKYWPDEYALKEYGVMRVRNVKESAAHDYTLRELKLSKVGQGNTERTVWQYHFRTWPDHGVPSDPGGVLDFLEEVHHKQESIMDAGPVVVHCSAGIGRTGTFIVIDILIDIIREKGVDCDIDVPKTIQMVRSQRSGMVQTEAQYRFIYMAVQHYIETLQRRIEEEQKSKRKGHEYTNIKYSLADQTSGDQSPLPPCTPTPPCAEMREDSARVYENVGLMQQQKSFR
Summary of the method: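 SHP2 (0.2 nM) preactivated ≥10 min with 100 nM bis-phosphorylated peptide, then 30 min with compound (10 concentrations, 1000–0.05 nM) at room temperature, pH 7.2 HEPES buffer with DTT. DiFMUP (20 µM, added solution) reacted 45 min, pervanadate-stopped; fluorescence 350/450 nm. IC50 by 4-parameter logistic fit.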

SMILES	IC50 [nM]
COc1c(F)ccc(-c2c(C)nc(N3CCC4(CC3)Cc3ncccc3[C@H]4N)c3ccnn23)c1F [Compound 5, (5S)-1'-[7-(2,4-difluoro-3-methoxy-phenyl)-6-methyl-pyrazolo [1 ,5-a]pyrazin-4-yl]spiro[5,7-dihydrocyclopenta[b]pyridine-6,4'-piperidine] -5-amine]	3
COc1nc2c(s1)[C@@H](N)C1(CCN(c3nc(C)c(-c4ccnc(C)c4Cl)n4nccc34)CC1)C2 [Compound 219, (6S)-1'-[7-(3-chloro-2-methyl-4-pyridyl)-6-methyl-pyrazolo[1,5-a]pyrazin-4-yl]-2-methoxy-spiro[4,6-dihydrocyclopenta[d]thiazole-5,4'-piperidine]-6-amine]	5
COc1ccc2c(n1)[C@@H](N)C1(CCN(c3nc(C)c(-c4cccc(F)c4Cl)n4nccc34)CC1)C2 [Compound 215, (7S)-1'-[7-(2-chloro-3-fluoro-phenyl)-6-methyl-pyrazolo[1,5-a]pyrazin-4-yl]-2-methoxy-spiro[5,7-dihydrocyclopenta[b]pyridine-6,4'-piperidine]-7-amine]	23
Cc1nc(N2CCC3(CC2)Cc2ncccc2[C@H]3N)c2ccnn2c1-c1ccc2ccn(C)c2c1 [Compound 184, (5S)-1'-[6-methyl-7-(1-methylindol-6-yl)pyrazolo[1,5-a]pyrazin-4-yl]spiro[5,7-dihydrocyclopenta[b]pyridine-6,4'-piperidine]-5-amine]	11
Cc1nc(N2CCC3(CC2)Cc2c(F)cccc2[C@H]3N)c2ccnn2c1-c1ccccc1F [Compound 93, (1S)-4-fluoro-1'-[7-(2-fluorophenyl)-6-methyl-pyrazolo[1,5-a]pyrazin-4-yl]spiro[indane-2,4'-piperidine]-1-amine hydrochloride]	46
Cc1nc2c(o1)[C@@H](N)C1(CCN(c3nc(C)c(-c4ccccc4F)n4nccc34)CC1)C2 [Compound 224, (6S)-1'-[7-(2-fluorophenyl)-6-methyl-pyrazolo[1,5-a]pyrazin-4-yl]-2-methyl-spiro[4,6-dihydrocyclopenta[d]oxazole-5,4'-piperidine]-6-amine]	27
Cc1nc(N2CCC3(CC2)Cc2ncccc2[C@H]3N)c2ccnn2c1-c1ccsc1 [Compound 194, (5S)-1'-[6-methyl-7-(3-thienyl)pyrazolo[1,5-a]pyrazin-4-yl]spiro[5,7-dihydrocyclopenta[b]pyridine-6,4'-piperidine]-5-amine]	5
Cc1nc(N2CCC3(CC2)Cc2nccnc2[C@H]3N)c2ccnn2c1-c1ccccc1F [Compound 63, (5S)-1'-[7-(2-fluorophenyl)-6-methyl-pyrazolo[1,5-a]pyrazin-4-yl]spiro[5,7-dihydrocyclopenta[b]pyrazine-6,4'-piperidine]-5-amine]	112
Cc1nccc(-c2c(C)nc(N3CCC4(CC3)[C@H](N)c3ccccc3N4C)c3ccnn23)c1Cl [Compound 156, (3R)-1'-[7-(3-chloro-2-methyl-4-pyridyl)-6-methyl-pyrazolo[1,5-a]pyrazin-4-yl]-1-methyl-spiro[indoline-2,4'-piperidine]-3-amine]	35
Cc1nc(N2CCC3(CC2)Cc2ncccc2[C@H]3N)c2ccnn2c1-c1ccc2c(c1)CCO2 [Compound 188, (5S)-1'-[7-(2,3-dihydrobenzofuran-5-yl)-6-methyl-pyrazolo[1,5-a]pyrazin-4-yl]spiro[5,7-dihydrocyclopenta[b]pyridine-6,4'-piperidine]-5-amine]	7
Cc1nc(N2CCC3(CC2)Cc2ncccc2[C@H]3N)c2ccnn2c1-c1ccc(CC#N)cc1 [Compound 189, 2-[4-[6-methyl-4-[(5S)-5-aminospiro[5,7-dihydrocyclopenta[b]pyridine-6,4'-piperidine]-1'-yl]pyrazolo[1,5-a]pyrazin-7-yl]phenyl]acetonitrile]	4
Cc1nc(N2CCC3(CC2)Oc2ccccc2[C@H]3N)c2ccnn2c1-c1cccc(F)c1Cl [Compound 20, (3R)-1'-[7-(2-chloro-3-fluorophenyl)-6-methyl-pyrazolo[1,5-a]pyrazin-4-yl]spiro[3H-benzofuran-2,4'-piperidine]-3-amine]	115
Cc1nc2c(s1)[C@@H](N)C1(CCN(c3nc(C)c(-c4cnn(C)c4C)n4nccc34)CC1)C2 [Compound 82, (6S)-1'-[7-(1,5-dimethylpyrazol-4-yl)-6-methyl-pyrazolo[1,5-a]pyrazin-4-yl]-2-methyl-spiro[4,6-dihydrocyclopenta[d]thiazole-5,4'-piperidine] -6-amine hydrochloride]	27
Cc1nc(N2CCC3(CC2)Cc2scnc2[C@H]3N)c2ccnn2c1-c1cccc(F)c1F [Compound 65, (4S)-1'-[7-(2,3-difluorophenyl)-6-methyl-pyrazolo[1,5-a]pyrazin-4-yl]spiro[4,6-dihydrocyclopenta[d]thiazole-5,4'-piperidine]-4-amine hydrochloride]	22
Cc1nc(N2CCC3(CC2)Cc2ncccc2[C@H]3N)c2ccnn2c1-c1cncc(F)c1 [Compound 179, (5S)-1'-[7-(5-fluoro-3-pyridyl)-6-methyl-pyrazolo[1,5-a]pyrazin-4-yl]spiro[5,7-dihydrocyclopenta[b]pyridine-6,4'-piperidine]-5-amine]	18
Cc1nccc(Sc2c(C)nc(N3CCC4(CC3)Cc3ncccc3[C@H]4N)c3ccnn23)c1Cl [Compound 231, (S)-1'-(7-((3-chloro-2-methylpyridin-4-yl)thio)-6-methylpyrazolo[1,5-a]pyrazin-4-yl)-5,7-dihydrospiro[cyclopenta[b]pyridine-6,4'-piperidin]-5-amine]	8
CC(=O)c1ccc(F)c(-c2c(C)nc(N3CCC4(CC3)Cc3ncccc3[C@H]4N)c3ccnn23)c1 [Compound 204, 1-[4-fluoro-3-[6-methyl-4-[(5S)-5-aminospiro [5,7-dihydrocyclopenta[b]pyridine-6,4'-piperidine]-1'-yl]pyrazolo[1,5-a]pyrazin-7-yl]phenyl]ethanone]	55
COc1ccc2c(n1)CC1(CCN(c3nc(C)c(-c4ccccc4F)n4nccc34)CC1)[C@@H]2N [Compound 56, (5S)-1'-[7-(2-fluorophenyl)-6-methyl-pyrazolo[1,5-a]pyrazin-4-yl]-2-methoxy-spiro[5,7-dihydrocyclopenta[b]pyridine-6,4'-piperidine]-5-amine]	17
COc1ccc2c(c1)CC1(CCN(c3nc(C)c(-c4ccnc(C)c4Cl)n4nccc34)CC1)[C@@H]2N [Compound 6, (1S)-1'-[7-(3-chloro-2-methyl-4-pyridyl)-6-methyl-pyrazolo[1,5-a]pyrazin-4-yl]-5-methoxy-spiro[indane-2,4'-piperidine]-1-amine]	8
Cc1nccc(Sc2c(C)nc(N3CCC4(CC3)Cc3ncccc3[C@H]4N)c3ccnn23)c1F [Compound 229, (5S)-1'-[7-[(3-fluoro-2-methyl-4-pyridyl)sulfanyl]-6-methyl-pyrazolo[1,5-a]pyrazin-4-yl]spiro[5,7-dihydrocyclopenta[b]pyridine-6,4'-piperidine]-5-amine]	14
Cc1nc(N2CCC3(CC2)[C@H](N)c2ccccc2N3C)c2ccnn2c1-c1ccccc1F [Compound 155, (3R)-1'-[7-(2-fluorophenyl)-6-methyl-pyrazolo[1,5-a]pyrazin-4-yl]-1-methyl-spiro [indoline-2,4'-piperidine]-3-amine]	202
Cc1ccc2c(n1)CC1(CCN(c3nc(C)c(-c4ccccc4F)n4nccc34)CC1)[C@@H]2N [Compound 106, (5S)-1'-[7-(2-fluorophenyl)-6-methyl-pyrazolo[1,5-a]pyrazin-4-yl]-2-methyl-spiro[5,7-dihydrocyclopenta[b]pyridine-6,4'-piperidine]-5-amine hydrochloride]	14
Cc1nc(N2CCC3(CC2)Cc2ncccc2[C@H]3N)c2ccnn2c1-c1cccc(C#N)c1F [Compound 181, 2-fluoro-3-[6-methyl-4-[(5S)-5-aminospiro[5,7-dihydrocyclopenta[b]pyridine-6,4'-piperidine]-1'-yl]pyrazolo[1,5-a]pyrazin-7-yl]benzonitrile]	5
Cc1nc(N2CCC3(CC2)Cc2c(F)cccc2[C@H]3N)c2ccnn2c1-c1cnc(C)n1C [Compound 97, (1S)-1'-[7-(2,3-dimethylimidazol-4-yl)-6-methyl-pyrazolo[1,5-a]pyrazin-4-yl]-4-fluoro-spiro[indane-2,4'-piperidine]-1-amine hydrochloride]	42
Cc1nc(N2CCC3(CC2)Cc2ncccc2[C@H]3N)c2ccnn2c1-c1ccc(C#N)s1 [Compound 190, 5-[6-methyl-4-[(5S)-5-aminospiro[5,7-dihydrocyclopenta[b]pyridine-6,4'-piperidine]-1'-yl]pyrazolo[1,5-a]pyrazin-7-yl]thiophene-2-carbonitrile]	31
